PubChem BioAssay (NCI)
“And” between values parts separate entries of the source, which are not always exact repeats. Equal values may be shown once.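 Results reflect a 48-hour exposure of cells in 96-well plates to compound at five concentrations. At the GI50, growth is halved. TGI: total growth inhibition.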 Where a SMILES comes first, the peptide text is derived from it. [ ]: non-standard residue; d: D form. The star is where a group is joined. ξ: configuration not given here. X6 = FC(F)(F)c1cc(NC(=S)*)cc(C(F)(F)F)c1; ξF = NC(Cc1ccccc1)C(=O)O

Tested on: MDA-MB-468 breast
Experiment: growth of human tumour cells (NCI), 48 h

Row | Compound | GI50 | TGI
1 | CCCCCN(CCCCC)CC(O)c1cc(C)c2ccc3cc(C(C)C)ccc3c2c1 (stereo not given) | 1.74 µM | 3.29 µM
2 | O=C(Nc1ccc(Cl)c(Cl)c1)Nc1ccc(Cl)c(Cl)c1 | 1.84 µM and 2.21 µM | 6.69 µM and 6.1 µM
3 | CO[C@H](C(=O)[C@@H](O)[C@@H](C)O)[C@@H]1Cc2cc3cc(O[C@H]4C[C@@H](O[C@H]5C[C@@H](O)[C@H](O)C(C)O5)[C@H](O)C(C)O4)c(C)c(O)c3c(O)c2C(=O)[C@H]1O[C@H]1C[C@@H](O[C@H]2C[C@@H](O[C@H]3C[C@](C)(O)C(=O)C(C)O3)[C@@H](O)C(C)O2)[C@H](O)C(C)O1 (stereo not given in full) | 0.0684 µM | 0.515 µM
4 | Cn1cc(C2=C(c3cn(C)c4ncccc34)C(=O)NC2=O)c2ccccc21 | 5.47 µM | > 25 µM
5 | O=C1/C(=C/c2cccc([N+](=O)[O-])c2)COc2ccc(O)cc21 | 2.26 µM | 5 µM
6 | OCc1ccc(N2CCC2c2ccc(F)cc2)cc1Cl (stereo not given) | 0.0304 µM | 0.251 µM
7 | Cc1nc2ccccc2c(N)c1-c1cc(C)c2c(C)nc3ccccc3c2n1 | 1.64 µM | 3.73 µM
8 | NC(=O)c1cccc2cn(-c3ccc([C@@H]4CCCNC4)cc3)nc12 | 6.09 µM | 18.9 µM
9 | C#Cc1ccc(-n2c(/C=C/c3ccc(C(F)(F)F)cc3)nc3ncccc3c2=O)cc1 | 1.51 µM | 3.63 µM
10 | COC1CCC(N2C(=O)CNc3ncc(-c4ccc(C(C)(C)O)nc4)nc32)CC1 (stereo not given) | 0.43 µM and 0.407 µM | 3.51 µM and 5.38 µM
11 | NC(=O)c1sc(-n2cnc3ccccc32)cc1OCc1ccccc1Br | 0.34 µM | 2.18 µM
12 | CCC(CO)Nc1nc2ccc(Cl)cc2c2ccccc12 (stereo not given) | 5.28 µM | 19.5 µM
13 | Clc1ccc2c(NCCCCNc3nc(N4CCCCC4)nc4ccccc34)ccnc2c1 | 1.64 µM | 3.63 µM
14 | CCCCCN(CCCCC)CCCNc1c2c(nc3ccc(Cl)cc13)CCCC2 | 2.44 µM | 6.31 µM
15 | COc1cc(-c2nn(-c3ccc(NC(=O)c4ccc(Cl)c(C(F)(F)F)c4)cc3)cc2-c2ccncc2)ccc1Cl | 2.95 µM | 16 µM
16 | Cc1ccc(C(=O)/C(=C/c2ccc([N+](=O)[O-])cc2)SCc2ccc(Cl)cc2)cc1 | 2.76 µM | 7.46 µM
17 | CC/C=C\CCC/C=C1/C(=O)C=C[C@@H]1C/C=C\CCCC(=O)OC | 3.2 µM | 10.1 µM
18 | O=C1CC(c2ccc3c(c2)OCO3)Nc2ccccc21 (stereo not given) | 4.22 µM | 23.9 µM
19 | COC(=O)[C@@H](NC(=O)CNC(=O)[C@H]1CCCN1C(=O)C(Cc1ccccc1)NC(=S)Nc1cc(C(F)(F)F)cc(C(F)(F)F)c1)C(C)C (stereo not given in full) (X6-[ξF][dP]GV-OMe) | 1.5 µM | 3.23 µM
20 | COC1=CC(c2ccc[nH]2)=N/C1=C\c1[nH]c(C)c(C(=O)OC(C)C)c1C | 0.111 µM | 1.39 µM
